Results reported in patent US4459290A, “C-23-Modified derivatives of OMT, pharmaceutical compositions and method of use” (priority 1982, dated 1984).
≈ marks a conversion by molar mass, not a printed value. Where two headings read alike, the source gives them in different places.

Assays:
Escherichia coli EC14 = assay: MIC, standard agar-dilution assay (Table V); format: cell-based; conditions: Escherichia coli, EC14
Protocol: (§1) Especially noteworthy is the improved activity against gram-negative bacteria for several derivatives when compared to the activity of OMT. […] The MIC's in Tables V and VI were determined by standard agar-dilution assays. The MIC's in Table VII were obtained using a conventional broth-dilution microtiter test.

Escherichia coli N10 = assay: MIC, standard agar-dilution assay (Table V); format: cell-based; conditions: Escherichia coli, N10
Protocol: as §1

[1] = system: Klebsiella pneumoniae KAE; assay: MIC, standard agar-dilution assay (Table V); format: cell-based; conditions: Klebsiella pneumoniae
Protocol: as §1

[2] = system: Klebsiella pneumoniae X26; assay: MIC, standard agar-dilution assay (Table V); format: cell-based; conditions: Klebsiella pneumoniae, X26
Protocol: as §1

Shigella sonnei N9 = assay: MIC, standard agar-dilution assay (Table V); format: cell-based
Protocol: as §1

[3] = system: Staphylococcus aureus S13E; assay: MIC, standard agar-dilution assay (Table V); format: cell-based; conditions: Staphylococcus aureus, S13E
Protocol: as §1

[4] = system: Staphylococcus aureus V41; assay: MIC, standard agar-dilution assay (Table V); format: cell-based; conditions: Staphylococcus aureus, V41
Protocol: as §1

[5] = system: Staphylococcus aureus X1.1; assay: MIC, standard agar-dilution assay (Table V); format: cell-based; conditions: Staphylococcus aureus, X1.1
Protocol: as §1

[6] = system: Staphylococcus aureus X400; assay: MIC, standard agar-dilution assay (Table V); format: cell-based; conditions: Staphylococcus aureus, X400
Protocol: as §1

[7] = system: Staphylococcus epidermidis EPI1; assay: MIC, standard agar-dilution assay (Table V); format: cell-based; conditions: Staphylococcus epidermidis, EPI1
Protocol: as §1

[8] = system: Staphylococcus epidermidis EPI2; assay: MIC, standard agar-dilution assay (Table V); format: cell-based; conditions: Staphylococcus epidermidis; S. epidermidis EPI2; agar dilution; read-out: MIC
Protocol: as §1

Streptococcus Group 9960 = assay: MIC, standard agar-dilution assay (Table V); format: cell-based; conditions: GROUP9960; Streptococcus Group 9960; agar dilution; read-out: MIC
Protocol: as §1

[9] = system: Streptococcus Group D X66; assay: MIC, standard agar-dilution assay (Table V); format: cell-based
Protocol: as §1

Escherichia coli TEM = assay: MIC, standard agar-dilution assay (Table V); format: cell-based; conditions: Escherichia coli
Protocol: (§2) The MIC's in Tables V and VI were determined by standard agar-dilution assays. The MIC's in Table VII were obtained using a conventional broth-dilution microtiter test.

[10] = system: Haemophilus influenzae Holt; assay: MIC, standard agar-dilution assay (Table V); format: cell-based; conditions: Haemophilus influenzae
Protocol: as §2

[11] = system: Haemophilus influenzae R252; assay: MIC, standard agar-dilution assay (Table V); format: cell-based; conditions: Haemophilus influenzae, R252
Protocol: as §2

[12] = system: Streptococcus pyogenes C203; assay: MIC, standard agar-dilution assay (Table V); format: cell-based; conditions: Streptococcus pyogenes, C203
Protocol: as §2

Mycoplasma gallisepticum = assay: MIC, broth-dilution microtiter test (Table VII); format: cell-based; conditions: Mycoplasmoides gallisepticum; M. gallisepticum; broth-dilution microtiter; read-out: MIC
Protocol: as §1

Mycoplasma hyorhinis = assay: MIC, broth-dilution microtiter test (Table VII); format: cell-based; conditions: M. hyorhinis; broth-dilution microtiter; read-out: MIC
Protocol: as §1

Mycoplasma synoviae = assay: MIC, broth-dilution microtiter test (Table VII); format: cell-based; conditions: Mycoplasmopsis synoviae; M. synoviae; broth-dilution microtiter; read-out: MIC
Protocol: as §1

[13] = system: Pasteurella hemolytica 22C; assay: MIC, broth-dilution microtiter test (Table VII); format: cell-based; conditions: Pasteurella, P. hemolytica 22C, read-out: MIC
Protocol: as §1

[14] = system: Pasteurella hemolytica 23C; assay: MIC, broth-dilution microtiter test (Table VII); format: cell-based; conditions: Pasteurella, P. hemolytica 23C, read-out: MIC
Protocol: as §1

[15] = system: Pasteurella hemolytica 41D; assay: MIC, broth-dilution microtiter test (Table VII); format: cell-based; conditions: Pasteurella, P. hemolytica 41D, read-out: MIC
Protocol: as §1

[16] = system: Pasteurella multocida 17E; assay: MIC, broth-dilution microtiter test (Table VII); format: cell-based; conditions: Pasteurella multocida; P. multocida 17E, bovine isolate; broth-dilution microtiter; read-out: MIC
Protocol: as §1

[17] = system: Pasteurella multocida 22A; assay: MIC, broth-dilution microtiter test (Table VII); format: cell-based; conditions: Pasteurella multocida; P. multocida 22A; broth-dilution microtiter; read-out: MIC
Protocol: as §1

[18] = system: Pasteurella multocida 40G; assay: MIC, broth-dilution microtiter test (Table VII); format: cell-based; conditions: Pasteurella multocida; P. multocida 40G; broth-dilution microtiter; read-out: MIC
Protocol: as §1

[19] = system: Pasteurella multocida 60A; assay: MIC, broth-dilution microtiter test (Table VII); format: cell-based; conditions: Pasteurella multocida; P. multocida 60A, avian isolate; broth-dilution microtiter; read-out: MIC
Protocol: as §1

[20] = system: Pasteurella multocida 68C; assay: MIC, broth-dilution microtiter test (Table VII); format: cell-based; conditions: Pasteurella multocida; P. multocida 68C; broth-dilution microtiter; read-out: MIC
Protocol: as §1

Staphylococcus aureus = assay: MIC, broth-dilution microtiter test (Table VII); format: cell-based; conditions: Staphylococcus aureus; S. aureus; broth-dilution microtiter; read-out: MIC
Protocol: as §1

Streptococcus sp. 80 = assay: MIC, broth-dilution microtiter test (Table VII); format: cell-based; conditions: Streptococcus sp. 80; broth-dilution microtiter; read-out: MIC
Protocol: as §1

[21] = system: Streptococcus pyogenes C203; assay: ED50 in mice experimentally infected with S. pyogenes C203 (Table VIII); format: in vivo
Protocol: The C-23 modified derivatives of OMT of this invention have shown in vivo antimicrobial activity against experimental infections. When two doses of test compound were administered to mice experimentally infected with a gram-positive bacterium, S. pyogenes C203, the activity observed was measured as an ED50 value [effective dose in mg/kg to protect 50% of the test animals: see Warren Wick, et al., J. Bacteriol. 81, 233-235 (1961)].

these strains = assay: Activity against the strains of Table VI, agar-dilution; format: cell-based; conditions: at the levels tested
Protocol: as §1

CCC1OC(=O)CC(O)C(C)C(OC2OC(C)C(O)C(N(C)C)C2O)C(CC=O)CC(C)C(=O)C=CC(C)=CC1CSc1n[nH]c(=O)c(=O)n1C (stereo not drawn) [Compound 6, 23-Deoxo-23-(1H-5,6-dioxo-4-methyl-1,2,4-triazin-3-yl)thio-OMT]
MIC (Escherichia coli EC14): > 128 µg/mL
MIC (Escherichia coli N10): > 128 µg/mL
MIC [1]: > 128 µg/mL
MIC [2]: 64 µg/mL (≈ 86.6 µM)
MIC (Shigella sonnei N9): > 128 µg/mL
MIC [3]: 4 µg/mL (≈ 5.41 µM)
MIC [4]: 4 µg/mL (≈ 5.41 µM)
MIC [5]: 4 µg/mL (≈ 5.41 µM)
MIC [6]: 8 µg/mL (≈ 10.8 µM)
MIC [7]: 4 µg/mL (≈ 5.41 µM)
MIC [8]: 8 µg/mL (≈ 10.8 µM)
MIC (Streptococcus Group 9960): 16 µg/mL (≈ 21.7 µM)
MIC [9]: 16 µg/mL (≈ 21.7 µM)
MIC (Escherichia coli TEM): > 128 µg/mL
MIC [10]: 32 µg/mL (≈ 43.3 µM)
MIC [11]: 32 µg/mL (≈ 43.3 µM)
MIC [12]: 1 µg/mL (≈ 1.35 µM)
MIC (Mycoplasma gallisepticum): 6.25 µg/mL (≈ 8.46 µM)
MIC (Mycoplasma hyorhinis): 25 µg/mL (≈ 33.8 µM)
MIC (Mycoplasma synoviae): 3.12 µg/mL (≈ 4.22 µM)
MIC [13]: 50 µg/mL (≈ 67.7 µM)
MIC [14]: 50 µg/mL (≈ 67.7 µM)
MIC [15]: 50 µg/mL (≈ 67.7 µM)
MIC [16]: 25 µg/mL (≈ 33.8 µM)
MIC [17]: 25 µg/mL (≈ 33.8 µM)
MIC [18]: 25 µg/mL (≈ 33.8 µM)
MIC [19]: 25 µg/mL (≈ 33.8 µM)
MIC [20]: 25 µg/mL (≈ 33.8 µM)
MIC (Staphylococcus aureus): 12.5 µg/mL (≈ 16.9 µM)
MIC (Streptococcus sp. 80): 6.25 µg/mL (≈ 8.46 µM)
ED50 ([21]; C203, po, read-out: ED50, Oral): > 100 mg/kg
ED50 ([21]; C203, sc, mice, subcutaneous, doses given 1 and 4 hours postinfection, read-out: ED50, Subcutaneous): 13.6 mg/kg
activity against these strains (these strains): did not show activity
